The text below walks through data of US8410112B2, “Compounds useful as inhibitors of ATR kinase” (Vertex Pharmaceuticals Incorporated, priority 2008, dated 2013).

T1 sequence (Q13535 whole entry): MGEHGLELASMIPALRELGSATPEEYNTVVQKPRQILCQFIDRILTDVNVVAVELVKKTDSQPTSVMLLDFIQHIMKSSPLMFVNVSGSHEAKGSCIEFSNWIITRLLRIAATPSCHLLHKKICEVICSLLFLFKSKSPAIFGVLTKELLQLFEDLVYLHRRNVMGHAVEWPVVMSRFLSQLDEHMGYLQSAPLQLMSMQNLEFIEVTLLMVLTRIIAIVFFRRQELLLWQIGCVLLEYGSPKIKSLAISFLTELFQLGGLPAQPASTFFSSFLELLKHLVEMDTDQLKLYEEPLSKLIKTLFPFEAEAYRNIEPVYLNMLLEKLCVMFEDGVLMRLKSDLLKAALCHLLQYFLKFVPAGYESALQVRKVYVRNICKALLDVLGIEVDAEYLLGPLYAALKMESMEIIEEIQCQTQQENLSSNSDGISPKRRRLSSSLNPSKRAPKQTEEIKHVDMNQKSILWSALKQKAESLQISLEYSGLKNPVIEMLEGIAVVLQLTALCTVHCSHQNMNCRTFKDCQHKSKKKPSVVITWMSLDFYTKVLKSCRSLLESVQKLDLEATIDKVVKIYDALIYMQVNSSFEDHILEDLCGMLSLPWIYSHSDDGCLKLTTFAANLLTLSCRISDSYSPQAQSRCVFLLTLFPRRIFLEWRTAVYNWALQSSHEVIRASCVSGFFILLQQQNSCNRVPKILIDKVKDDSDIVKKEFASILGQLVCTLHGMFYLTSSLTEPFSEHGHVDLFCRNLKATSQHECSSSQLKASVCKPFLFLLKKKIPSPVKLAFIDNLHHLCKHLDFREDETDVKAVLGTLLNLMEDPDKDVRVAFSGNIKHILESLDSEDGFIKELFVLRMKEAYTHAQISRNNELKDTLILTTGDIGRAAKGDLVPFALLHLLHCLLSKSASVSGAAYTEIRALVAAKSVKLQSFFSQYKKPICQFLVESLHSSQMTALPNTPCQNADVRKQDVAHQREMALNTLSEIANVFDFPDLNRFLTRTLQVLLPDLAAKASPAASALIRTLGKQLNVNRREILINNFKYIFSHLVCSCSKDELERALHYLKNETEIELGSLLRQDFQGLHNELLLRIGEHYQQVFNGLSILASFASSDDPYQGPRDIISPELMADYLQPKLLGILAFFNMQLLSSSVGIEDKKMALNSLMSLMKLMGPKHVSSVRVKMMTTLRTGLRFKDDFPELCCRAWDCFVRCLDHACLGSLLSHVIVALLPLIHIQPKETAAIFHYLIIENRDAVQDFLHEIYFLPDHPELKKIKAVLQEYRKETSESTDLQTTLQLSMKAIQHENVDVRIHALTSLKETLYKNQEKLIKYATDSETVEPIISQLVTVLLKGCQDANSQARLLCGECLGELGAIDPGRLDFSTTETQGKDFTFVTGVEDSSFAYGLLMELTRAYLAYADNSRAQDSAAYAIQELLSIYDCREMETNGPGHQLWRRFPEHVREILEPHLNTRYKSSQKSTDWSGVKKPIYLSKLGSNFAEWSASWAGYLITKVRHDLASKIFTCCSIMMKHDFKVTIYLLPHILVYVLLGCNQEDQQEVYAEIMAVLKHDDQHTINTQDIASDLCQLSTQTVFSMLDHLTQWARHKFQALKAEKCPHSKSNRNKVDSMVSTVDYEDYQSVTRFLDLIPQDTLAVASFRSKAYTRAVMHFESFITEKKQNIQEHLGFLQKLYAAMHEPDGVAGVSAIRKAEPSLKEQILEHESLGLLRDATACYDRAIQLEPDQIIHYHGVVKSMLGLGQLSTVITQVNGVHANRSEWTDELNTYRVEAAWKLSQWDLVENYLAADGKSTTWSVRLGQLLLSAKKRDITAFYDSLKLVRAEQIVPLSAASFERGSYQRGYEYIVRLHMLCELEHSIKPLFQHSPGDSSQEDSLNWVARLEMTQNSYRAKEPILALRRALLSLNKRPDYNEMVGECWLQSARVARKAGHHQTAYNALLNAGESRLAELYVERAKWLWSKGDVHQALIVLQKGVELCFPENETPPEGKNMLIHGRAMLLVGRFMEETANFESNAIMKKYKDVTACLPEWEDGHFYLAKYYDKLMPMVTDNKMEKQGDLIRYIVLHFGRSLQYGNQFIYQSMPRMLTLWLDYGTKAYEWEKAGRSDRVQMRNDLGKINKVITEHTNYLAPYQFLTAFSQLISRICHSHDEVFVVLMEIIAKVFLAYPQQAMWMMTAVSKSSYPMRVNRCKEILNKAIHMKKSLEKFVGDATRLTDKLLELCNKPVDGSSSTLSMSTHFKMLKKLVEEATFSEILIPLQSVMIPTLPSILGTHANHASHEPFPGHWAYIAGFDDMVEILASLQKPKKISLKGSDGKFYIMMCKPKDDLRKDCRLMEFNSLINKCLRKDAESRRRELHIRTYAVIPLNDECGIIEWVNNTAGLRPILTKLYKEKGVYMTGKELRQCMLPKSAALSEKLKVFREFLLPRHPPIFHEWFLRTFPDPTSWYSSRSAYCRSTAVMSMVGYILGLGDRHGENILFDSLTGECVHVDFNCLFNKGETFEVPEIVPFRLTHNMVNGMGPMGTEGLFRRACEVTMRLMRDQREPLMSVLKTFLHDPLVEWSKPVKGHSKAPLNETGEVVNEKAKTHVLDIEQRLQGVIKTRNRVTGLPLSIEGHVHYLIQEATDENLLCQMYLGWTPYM

This assay addresses T1, full-length ATR (Homo sapiens, UniProt Q13535).
T1 construct: in the presence of 5 nM full-length ATR
Put plainly: ATR Inhibition Assay (radioactive-phosphate incorporation). Particulars: Ki(app); 5 nM full-length ATR, 10 μM ATP, 800 μM target peptide, 25° C. It is filed as biochemical. The method, boiled down: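 After a 10-min pre-incubation of compound with 5 nM enzyme at 25 °C, ATP was added to start the reaction (final 10 μM [γ-33P]ATP, 800 μM peptide; Tris/HCl pH 7.5, MgCl2, DTT), which ran 24 h. Incorporated 33P was captured on phosphocellulose filters, and Ki(app) was fitted by non-linear regression.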
Turning to `Nc1ncc(N2CC=C(C(=O)O)CC2)nc1-c1nnc(-c2ccccc2)o1` [Compound I-288, 1-[5-amino-6-(5-phenyl-1,3,4-oxadiazol-2-yl)pyrazin-2-yl]-3,6-dihydro-2H-pyridine-4-carboxylic acid], the Ki lay in the range of 100 to 1000 nM.

For `Cc1ccc2nc(-c3nc(C4=CCN(S(=O)(=O)N(C)C)CC4)cnc3N)[nH]c2c1` [Compound I-23, 4-(5-amino-6-(6-methyl-1H-benzo[d]imidazol-2-yl)pyrazin-2-yl)-N,N-dimethyl-5,6-dihydropyridine-1(2H)-sulfonamide], the Ki is under 100 nM.

As to `CCS(=O)(=O)N1CCN(c2cnc(N)c(C(=O)Nc3ccccc3)n2)CC1` [Compound I-20, 3-amino-6-(4-(ethylsulfonyl)piperazin-1-yl)-N-phenylpyrazine-2-carboxamide], the Ki lay within 100 to 1000 nM.

Consider `CN(C)C(=O)N1CCN(c2cnc(N)c(C(=O)Nc3ccccn3)n2)CC1` [Compound I-229, 3-amino-6-(4-(dimethylcarbamoyl)piperazin-1-yl)-N-(pyridin-2-yl)pyrazine-2-carboxamide], for which the Ki is 100 to 1000 nM.

For the compound `Nc1ncc(N2CC[C@H](N)C2)nc1-c1nc2ccccc2[nH]1` [Compound I-39, (S)-5-(3-aminopyrrolidin-1-yl)-3-(1H-benzo[d]imidazol-2-yl)pyrazin-2-amine], the Ki was in the range of 1000 to 10000 nM.

For the compound `Nc1ncc(N2CCN(C(=O)COc3ccccc3)CC2)nc1-c1nnc(-c2ccccc2)o1` [Compound I-195, 1-(4-(5-amino-6-(5-phenyl-1,3,4-oxadiazol-2-yl)pyrazin-2-yl)piperazin-1-yl)-2-phenoxyethanone], the Ki lay within 1000 to 10000 nM.

In the case of `Cc1cccc(C)c1C(=O)N1CCN(c2cnc(N)c(-c3nnc(-c4ccccc4)o3)n2)CC1` [Compound I-258, (4-(5-amino-6-(5-phenyl-1,3,4-oxadiazol-2-yl)pyrazin-2-yl)piperazin-1-yl)(2,6-dimethylphenyl)methanone], the Ki lay within 100 to 1000 nM.

Consider `Nc1ncc(N2CCN(C(=O)N3CCCC3)CC2)nc1-c1nnc(-c2ccccc2)o1` [Compound I-223, (4-(5-amino-6-(5-phenyl-1,3,4-oxadiazol-2-yl)pyrazin-2-yl)piperazin-1-yl)(pyrrolidin-1-yl)methanone], for which the Ki fell in the range of 100 to 1000 nM.

On to `NCCC(=O)N1CC=C(c2cnc(N)c(-c3nc4ccccc4[nH]3)n2)CC1` [Compound I-338, 3-amino-1-(4-(5-amino-6-(1H-benzo[d]imidazol-2-yl)pyrazin-2-yl)-5,6-dihydropyridin-1(2H)-yl)propan-1-one], for which the Ki is 100 to 1000 nM.

Take `Cn1cnc(S(=O)(=O)N2CCN(c3cnc(N)c(-c4nnc(-c5ccccc5)o4)n3)CC2)c1` [Compound I-87, 5-(4-(1-methyl-1H-imidazol-4-ylsulfonyl)piperazin-1-yl)-3-(5-phenyl-1,3,4-oxadiazol-2-yl)pyrazin-2-amine]: the Ki was in the range of 100 to 1000 nM.

Consider `Cc1ccc2nc(-c3nc(N4CCC(N(C)C)CC4)cnc3N)[nH]c2c1` [Compound I-49, 5-(4-(dimethylamino)piperidin-1-yl)-3-(6-methyl-1H-benzo[d]imidazol-2-yl)pyrazin-2-amine], for which the Ki lay in the range of 1000 to 10000 nM.

For `COC(=O)N1CCN(c2cnc(N)c(-c3nnc(-c4ccccc4)o3)n2)CC1` [Compound I-225, methyl 4-(5-amino-6-(5-phenyl-1,3,4-oxadiazol-2-yl)pyrazin-2-yl)piperazine-1-carboxylate], the Ki lay within 100 to 1000 nM.

Regarding `COC(=O)N1CCN(c2cnc(N)c(-c3nc4ccccc4[nH]3)n2)CC1` [Compound I-268, methyl 4-(5-amino-6-(1H-benzo[d]imidazol-2-yl)pyrazin-2-yl)piperazine-1-carboxylate], the Ki is 1000 to 10000 nM.

For the compound `Cc1ccc2nc(-c3nc(N4CCN(c5cccc(F)c5)CC4)cnc3N)[nH]c2c1` [Compound I-47, 5-(4-(3-fluorophenyl)piperazin-1-yl)-3-(6-methyl-1H-benzo[d]imidazol-2-yl)pyrazin-2-amine], the Ki was in the range of 1000 to 10000 nM.

Take `CC(C)(C)C(=O)N1CCN(c2cnc(N)c(C(=O)Nc3ccccn3)n2)CC1` [Compound I-209, 3-amino-6-(4-(2,2-dimethylpropanoyl)piperazin-1-yl)-N-(pyridin-2-yl)pyrazine-2-carboxamide]: the Ki is 1000 to 10000 nM.

Turning to `Nc1ncc(N2CC=C(c3nccs3)CC2)nc1-c1nnc(-c2ccccc2)o1` [Compound I-290, 3-(5-phenyl-1,3,4-oxadiazol-2-yl)-5-(4-thiazol-2-yl-3,6-dihydro-2H-pyridin-1-yl)pyrazin-2-amine], the Ki fell in the range of 100 to 1000 nM.

For the compound `CNCc1ccc(-c2nnc(-c3nc(N4C[C@@H]5[C@H](C4)[C@@H]5NS(=O)(=O)C(C)C)cnc3N)o2)cc1` [Compound I-370, N-[(1S,5R)-3-[5-Amino-6-[5-[4-(methylaminomethyl)phenyl]-1,3,4-oxadiazol-2-yl]pyrazin-2-yl]-3-azabicyclo[3.1.0]hexan-6-yl]propane-2-sulfonamide], the Ki lay in the range of 100 to 1000 nM.

For `CCS(=O)(=O)N1CCC2(CCN(c3cnc(N)c(-c4nnc(-c5ccc(CNC)cc5)o4)n3)C2)C1` (stereo not drawn) [Compound I-330, 5-(3-Ethylsulfonyl-3,7-diazaspiro[4.4]nonan-7-yl)-3-[5-[4-(methylaminomethyl)phenyl]-1,3,4-oxadiazol-2-yl]pyrazin-2-amine], the Ki was in the range of 1000 to 10000 nM.

`CCS(=O)(=O)N1CCN(c2cnc(N)c(-c3nc4ccccc4n3C)n2)CC1` [Compound I-15, 5-(4-(ethylsulfonyl)piperazin-1-yl)-3-(1-methyl-1H-benzo[d]imidazol-2-yl)pyrazin-2-amine]: the Ki fell in the range of 100 to 1000 nM.

Regarding `CNCc1ccc(-c2nnc(-c3nc(N4CCC[C@@H]4CO)cnc3N)o2)cc1` [Compound I-356, [(2R)-1-[5-Amino-6-[5-[4-(methylaminomethyl)phenyl]-1,3,4-oxadiazol-2-yl]pyrazin-2-yl]pyrrolidin-2-yl]methanol], the Ki fell in the range of 100 to 1000 nM.

For the compound `CCC(=O)N1C[C@@H]2C[C@@H]1CN2c1cnc(N)c(-c2nnc(-c3ccc(CNC)cc3)o2)n1` [Compound I-334, 1-[(1S,4R)-2-[5-Amino-6-[5-[4-(methylaminomethyl)phenyl]-1,3,4-oxadiazol-2-yl]pyrazin-2-yl]-2,5-diazabicyclo[2.2.1]heptan-5-yl]propan-1-one], the Ki was 100 to 1000 nM.

In the case of `CN(C)CC(=O)N1CC=C(c2cnc(N)c(-c3nnc(-c4ccccc4)o3)n2)CC1` [Compound I-134, 1-(4-(5-amino-6-(5-phenyl-1,3,4-oxadiazol-2-yl)pyrazin-2-yl)-5,6-dihydropyridin-1(2H)-yl)-2-(dimethylamino)ethanone], the Ki was in the range of 100 to 1000 nM.

Take `Nc1ncc(N2CCN(C(=O)C3CCCCC3)CC2)nc1-c1nnc(-c2ccccc2)o1` [Compound I-251, (4-(5-amino-6-(5-phenyl-1,3,4-oxadiazol-2-yl)pyrazin-2-yl)piperazin-1-yl)(cyclohexyl)methanone]: the Ki was in the range of 100 to 1000 nM.

`CCS(=O)(=O)N1CCN(c2cnc(N)c(-c3nc(-c4ccccc4)no3)n2)CC1` [Compound I-19, 5-(4-(ethylsulfonyl)piperazin-1-yl)-3-(3-phenyl-1,2,4-oxadiazol-5-yl)pyrazin-2-amine]: the Ki lay in the range of 100 to 1000 nM.

`Nc1ncc(N2CCN(S(=O)(=O)C3CCCC3)CC2)nc1-c1nnc(-c2ccccc2)o1` [Compound I-92, 5-(4-(cyclopentylsulfonyl)piperazin-1-yl)-3-(5-phenyl-1,3,4-oxadiazol-2-yl)pyrazin-2-amine]: the Ki lay within 100 to 1000 nM.

On to `CCC(=O)N1CCN(c2cnc(N)c(-c3nnc(-c4ccc(CNC)cc4)o3)n2)C[C@H]1C` [Compound I-315, 1-[(2R)-4-[5-Amino-6-[5-[4-(methylaminomethyl)phenyl]-1,3,4-oxadiazol-2-yl]pyrazin-2-yl]-2-methyl-piperazin-1-yl]propan-1-one], for which the Ki lay within 100 to 1000 nM.

As to `CCS(=O)(=O)N1CCN(c2cnc(N)c(-c3nnc(-c4cccc(F)c4)o3)n2)CC1` [Compound I-283, 5-(4-ethylsulfonylpiperazin-1-yl)-3-[5-(3-fluorophenyl)-1,3,4-oxadiazol-2-yl]pyrazin-2-amine], the Ki lay within 100 to 1000 nM.

On to `CN(C)C(=O)N1CC=C(c2cnc(N)c(-c3nc4ccccc4[nH]3)n2)CC1` [Compound I-234, 4-(5-amino-6-(1H-benzo[d]imidazol-2-yl)pyrazin-2-yl)-N,N-dimethyl-5,6-dihydropyridine-1(2H)-carboxamide], for which the Ki was in the range of 100 to 1000 nM.

Take `CCS(=O)(=O)NC1CN(c2cnc(N)c(-c3nnc(-c4ccccc4)o3)n2)C1` [Compound I-302, N-[1-[5-amino-6-(5-phenyl-1,3,4-oxadiazol-2-yl)pyrazin-2-yl]azetidin-3-yl]ethanesulfonamide]: the Ki lay in the range of 100 to 1000 nM.

Turning to `Cn1cnc(S(=O)(=O)N2CC=C(c3cnc(N)c(-c4nnc(-c5ccccc5)o4)n3)CC2)c1` [Compound I-120, 5-(1-(1-methyl-1H-imidazol-4-ylsulfonyl)-1,2,3,6-tetrahydropyridin-4-yl)-3-(5-phenyl-1,3,4-oxadiazol-2-yl)pyrazin-2-amine], the Ki was under 100 nM.

With `COC(=O)N1CC=C(c2cnc(N)c(-c3nc4ccccc4[nH]3)n2)CC1` [Compound I-244, methyl 4-(5-amino-6-(1H-benzo[d]imidazol-2-yl)pyrazin-2-yl)-5,6-dihydropyridine-1(2H)-carboxylate], the Ki is 100 to 1000 nM.

Take `Nc1ncc(N2CCN(C(=O)c3c(F)cccc3F)CC2)nc1-c1nnc(-c2ccccc2)o1` [Compound I-203, (4-(5-amino-6-(5-phenyl-1,3,4-oxadiazol-2-yl)pyrazin-2-yl)piperazin-1-yl)(2,6-difluorophenyl)methanone]: the Ki lay in the range of 100 to 1000 nM.

On to `Nc1ncc(C2=CCN(C(=O)COc3ccccc3)CC2)nc1-c1nc2ccccc2[nH]1` [Compound I-137, 1-(4-(5-amino-6-(1H-benzo[d]imidazol-2-yl)pyrazin-2-yl)-5,6-dihydropyridin-1(2H)-yl)-2-phenoxyethanone], for which the Ki fell in the range of 100 to 1000 nM.
